Values quoted from earlier work in US20210077498A1, “TRANSIENT PROTECTION OF HEMATOPOIETIC STEM AND PROGENITOR CELLS AGAINST IONIZING RADIATION” (G1 Therapeutics, Inc., priority 2015, published 2021).

Experiments:
[1] = test system: CDK4/6-dependent cell lines; details: cited from earlier work
[2] = test system: CDK4/6 independent Rb-null melanoma cell line A2058; details: cited from earlier work
[3] = test system: mice exposed to peri-lethal and lethal TBI; details: compared to untreated controls; cited from earlier work
[4] = in vivo; cited from earlier work

O=C1NC(=O)c2c1c1c3ccccc3[nH]c1c1[nH]c3cc(Br)ccc3c21 [Formula 2BrIC, 2-bromo-12,13-dihydro-5H-indolo[2,3-a]pyrrolo[3,4]carbazole-5,6-dione]
IR protection [1]: exhibited IR protective characteristics | G1 arrest [2]: did not G1 arrest | protection from IR exposure [2]: failed to protect | HSPC protection and survival after TBI [3]: protect HSPCs and improve survival of mice | bioavailability [4]: restricted bioavailability
